What was measured:
soybean = test: Test B pre/postemergence soybean; assay type: in vivo, Glycine max
In short: (§1)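 Herbicidal effect was estimated by eye on a ten-point control scale after plants spent twelve to sixteen days in a greenhouse following soil or foliar treatment. Foliar sprays targeted plants at one to four leaves; all doses were formulated in a non-phytotoxic solvent with surfactant.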

wheat = test: Test B pre/postemergence wheat; assay type: in vivo, Triticum aestivum
In short: as §1

smallflower flatsedge = test: Test B flood test smallflower flatsedge; assay type: in vivo, Cyperus difformis
In short: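 Read-out is a visual response score from 0 (no effect) to 10 (complete control), assigned by comparison with untreated controls. Treatment was applied at the 2-leaf stage, and plants stayed in the greenhouse for twelve to sixteen days before scoring.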

wild oat = test: Test B pre/postemergence wild oat; assay type: in vivo, Avena fatua
In short: as §1

crabgrass = test: Test B pre/postemergence crabgrass; assay type: in vivo, Digitaria sanguinalis
In short: as §1

[1] = Preemergence, Rate 62 g/ha, scale of 0 to 10 where 0 is no effect and 10 is complete control
[2] = Preemergence, Rate 250 g/ha, scale of 0 to 10 where 0 is no effect and 10 is complete control
[3] = Preemergence, Rate 500 g/ha, scale of 0 to 10 where 0 is no effect and 10 is complete control
[4] = Rate 62 g/ha, Postemergence, scale 0 to 10 (0 no effect, 10 complete control)
[5] = Rate 125 g/ha, Postemergence, scale of 0 to 10 where 0 is no effect and 10 is complete control
[6] = Rate 250 g/ha, Postemergence, scale of 0 to 10 where 0 is no effect and 10 is complete control
[7] = Rate 500 g/ha, Postemergence, scale 0 to 10, 0 no effect, 10 complete control

With `C=CCn1c(=O)on(C(=O)N(c2ccc(Cl)cc2)C(C)C2CC2)c1=O` (stereo not drawn) [Compound 325] as the molecule, how does the “Soybean plant response rating” value (soybean; [1]) read?
The value was 0.

What about the “Soybean plant response rating (0 to 10 scale)” value (soybean; Preemergence, Rate 125 g/ha) of the same molecule?
Its value is 0.

And the “Soybean plant response rating” value (soybean; [2])?
Its value is 0.

What about the “Soybean plant response rating” value (soybean; [3]) of the same molecule?
The value was 0.

What about the “Soybean plant response rating” value (soybean; [4]) of the same molecule?
The value was 2.

What about the “Soybean plant response rating” value (soybean; [5]) of the same molecule?
Its value is 2.

And the “Plant response rating, Soybean” value (soybean; [6])?
Its value is 1.

And the “Plant response rating, Soybean” value (soybean; [7])?
Its value is 3.

And the “Wheat plant response rating” value (wheat; [1])?
Its value is 0.

What about the “Wheat plant response rating (0 to 10 scale)” value (wheat; Preemergence, Rate 125 g/ha) of the same molecule?
The value was 0.

What about the “Wheat plant response rating” value (wheat; [2]) of the same molecule?
Its value is 0.

What about the “Wheat plant response rating” value (wheat; [3]) of the same molecule?
The value was 0.

What about the “Wheat plant response rating” value (wheat; [4]) of the same molecule?
Its value is 0.

And the “Wheat plant response rating” value (wheat; [5])?
Its value is 0.

What about the “Plant response rating, Wheat” value (wheat; [6]) of the same molecule?
The value was 2.

What about the “Plant response rating, Wheat” value (wheat; [7]) of the same molecule?
The value was 5.

And the “S. Flatsedge plant response rating” value (smallflower flatsedge; Rate 62 g/ha, headed Pre-emergence (flood test species), scale 0 to 10 (0 no effect, 10 complete control))?
Its value is 0.

And the “S. Flatsedge plant response rating” value (smallflower flatsedge; Rate 125 g/ha, Pre-emergence, flood test species, scale 0 to 10 where 0 is no effect and 10 is complete control)?
The value was 0.

And the “S. Flatsedge plant response rating” value (smallflower flatsedge; Rate 250 g/ha, Pre-emergence, flood-test species, scale 0 to 10, 0 is no effect, 10 is complete control)?
The value was 0.

What about the “S. Flatsedge plant response rating” value (smallflower flatsedge; Rate 500 g/ha, Pre-emergence, flood test species, scale 0 to 10 (0 no effect, 10 complete control)) of the same molecule?
Its value is 0.

And the “Wild oats plant response rating” value (wild oat; [1])?
The value was 0.

What about the “Wild oats plant response rating (0 to 10 scale)” value (wild oat; Preemergence, Rate 125 g/ha) of the same molecule?
Its value is 0.

What about the “Wild oats plant response rating” value (wild oat; [2]) of the same molecule?
The value was 0.

And the “Wild oats plant response rating” value (wild oat; [3])?
The value was 2.

What about the “Wild oats plant response rating” value (wild oat; [4]) of the same molecule?
Its value is 0.

And the “Wild oats plant response rating” value (wild oat; [5])?
Its value is 0.

And the “Plant response rating, Wild oats” value (wild oat; [6])?
Its value is 0.

And the “Plant response rating, Wild oats” value (wild oat; [7])?
Its value is 4.

What about the “Crabgrass plant response rating” value (crabgrass; [1]) of the same molecule?
Its value is 0.

And the “Crabgrass plant response rating (0 to 10 scale)” value (crabgrass; Preemergence, Rate 125 g/ha)?
Its value is 0.

What about the “Crabgrass plant response rating” value (crabgrass; [2]) of the same molecule?
The value was 1.

What about the “Crabgrass plant response rating” value (crabgrass; [3]) of the same molecule?
The value was 2.

What about the “Crabgrass plant response rating” value (crabgrass; [4]) of the same molecule?
Its value is 0.

What about the “Crabgrass plant response rating” value (crabgrass; [5]) of the same molecule?
The value was 0.

And the “Plant response rating, Crabgrass” value (crabgrass; [6])?
Its value is 0.

And the “Plant response rating, Crabgrass” value (crabgrass; [7])?
The value was 0.

Reference: patent publication US6737383B1, “Herbicidal oxadiazolidines” (priority 1999, dated 2004)
